From article PMC8071358, “Targeting of the Essential acpP, ftsZ, and rne Genes in Carbapenem-Resistant Acinetobacter baumannii by Antisense PNA Precision Antibacterials” (Biomedicines, 2021)
Converted amounts (≈) assume the structure as drawn. Where two headings read alike, the source gives them in different places. {(KFF)3K-eg1} = H-(KFF)3K peptide (K lysine, F phenylalanine) with eg1 linker (8-amino-3,6-dioxaoctanoyl), on the PNA N terminus (5' end); {NH2} = C-terminal amide

Experiments:
CRAB strain AC6 = assay: Antibiotic MIC (CLSI microdilution or gradient strips); assay type: cell-based, Acinetobacter baumannii; details: for MIC: Acinetobacter baumannii
Experimental: (§1) All minimum inhibitory concentration (MIC) determinations for antibiotics were performed by the standard microdilution method in 96-well microplate (Thermo-Scientific, Roskilde, Denmark) or by gradient test strips (Liofilchem, Italy) according to the Clinical and Laboratory Standards Institute guidelines.

CRAB strain AC7 = assay: as above; assay type: cell-based, Acinetobacter baumannii; details: for MIC: Acinetobacter baumannii
Experimental: as §1

CRAB strain AC4 = assay: as above; assay type: cell-based, Acinetobacter baumannii; details: for MIC: Acinetobacter baumannii
Experimental: (§2) All minimum inhibitory concentration (MIC) determinations for antibiotics were performed by the standard microdilution method in 96-well microplate (Thermo-Scientific, Roskilde, Denmark) or by gradient test strips (Liofilchem, Italy) according to the Clinical and Laboratory Standards Institute guidelines. Escherichia coli ATCC 25922 was used as control.

CRAB strain AC3 = assay: as above; assay type: cell-based, Acinetobacter baumannii; details: for MIC: Acinetobacter baumannii, AC3, sputum isolate
Experimental: as §2

[1] = test system: A. baumannii ATCC 19606 type strain; assay: as above; assay type: cell-based, Acinetobacter baumannii; details: for MIC: Acinetobacter baumannii, ATCC19606
Experimental: as §2

CRAB strain AC1 = assay: as above; assay type: cell-based, Acinetobacter baumannii; details: for MIC: Acinetobacter baumannii, AC1, wound isolate
Experimental: as §2

CRAB strain SSI1104 = assay: as above; assay type: cell-based, Acinetobacter baumannii; details: for MIC: Acinetobacter baumannii, SSI1104
Experimental: as §2

CRAB strain AC46 [2] = assay: as above; assay type: cell-based, Acinetobacter baumannii; details: for MIC: Acinetobacter baumannii
Experimental: as §2

CRAB strain AC44 [3] = assay: as above; assay type: cell-based, Acinetobacter baumannii; details: for MIC: Acinetobacter baumannii, AC44, urine isolate
Experimental: as §2

CRAB strain AC5 = assay: as above; assay type: cell-based, Acinetobacter baumannii; details: for MIC: Acinetobacter baumannii, AC5, urine isolate
Experimental: as §2

CRAB strain AC9 = assay: as above; assay type: cell-based, Acinetobacter baumannii; details: for MIC: Acinetobacter baumannii
Experimental: as §2

CRAB strain AC8 = assay: as above; assay type: cell-based, Acinetobacter baumannii; details: for MIC: Acinetobacter baumannii
Experimental: as §2

CRAB strain AC2 [4] = assay: as above; assay type: cell-based, Acinetobacter baumannii; details: for MIC: Acinetobacter baumannii
Experimental: as §2

CRAB strain AC46 [5] = assay: BPP-PNA MIC, broth microdilution; assay type: cell-based, Acinetobacter baumannii; details: Sigma MHB medium without cation; 37 °C, 18 h
Experimental: (§3) MIC values were determined by broth microdilution according to standard protocols with a few modifications. […] Then, 180 µL bacterial solutions were dispensed into a low-bind 96-well plate (Thermo-Scientific, Roskilde, Denmark) along with 20 µL of BPP-PNA compound (BPP-PNA was serially diluted 2-fold from 16 to 0.5 µM in a 96-well plate). The plate was incubated in a Tecan Genios plate reader (GMI, Minnesota, Ramsey, USA) at 37 °C for 18 h with linear shaking, OD was measured every 20 min at 595 nm. […] The minimum bactericidal concentration (MBC) values were determined by plating 10 µL samples from the wells with no visible turbidity onto Mueller–Hinton agar plates. The MBC is determined the lowest concentration of BPP-PNA that reduces the viability of the initial bacterial inoculum by ≥99.9% (3-log reduction in CFU/mL). A minimum of two independent experiments (biological replicates) of the assay were conducted, and two technical replicates were used in each experiment for each bacterium, compound, and concentration.

A. baumannii SSI1104 = assay: BPP-PNA MIC, broth microdilution; assay type: cell-based, Acinetobacter baumannii; details: 37 °C, 18 h
Experimental: as §3

CRAB strains = assay: BPP-PNA MIC/MBC summarised over the panel of strains; assay type: cell-based, Acinetobacter baumannii
Experimental: (§4) MIC values were determined by broth microdilution according to standard protocols with a few modifications. An overnight bacterial cell culture was diluted to approximately 5 × 10^5 CFU/mL in non-cation-adjusted Muller Hinton Broth (MHB). Then, 180 µL bacterial solutions were dispensed into a low-bind 96-well plate (Thermo-Scientific, Roskilde, Denmark) along with 20 µL of BPP-PNA compound (BPP-PNA was serially diluted 2-fold from 16 to 0.5 µM in a 96-well plate). The plate was incubated in a Tecan Genios plate reader (GMI, Minnesota, Ramsey, USA) at 37 °C for 18 h with linear shaking, OD was measured every 20 min at 595 nm. […] The minimum bactericidal concentration (MBC) values were determined by plating 10 µL samples from the wells with no visible turbidity onto Mueller–Hinton agar plates. The MBC is determined the lowest concentration of BPP-PNA that reduces the viability of the initial bacterial inoculum by ≥99.9% (3-log reduction in CFU/mL). A minimum of two independent experiments (biological replicates) of the assay were conducted, and two technical replicates were used in each experiment for each bacterium, compound, and concentration.

E. coli K-12 MG1655 = assay: BPP-PNA MIC, broth microdilution; assay type: cell-based, Escherichia coli; details: non-target species; MHB without cation (Oxoid)
Experimental: as §4

CRAB strain AC44 [6] = assay: BPP-PNA MIC, broth microdilution; assay type: cell-based, Acinetobacter baumannii; details: 37 °C, 18 h
Experimental: as §4

A. baumannii ATCC 19606 = assay: BPP-PNA MIC, broth microdilution; assay type: cell-based, Acinetobacter baumannii; details: 37 °C, 18 h
Experimental: as §4

CRAB strain AC2 [7] = assay: BPP-PNA MIC, broth microdilution; assay type: cell-based, Acinetobacter baumannii; details: Sigma MHB medium without cation; 37 °C, 18 h
Experimental: as §4

P. aeruginosa (PAO1) = assay: BPP-PNA MIC, broth microdilution; assay type: cell-based, Pseudomonas aeruginosa; details: non-target species; MHB without cation (Oxoid)
Experimental: as §4

HepG2 hepatocytes = assay: HepG2 cell toxicity (CellTiter-Glo, ATP); assay type: cell-based; details: 10 µM, ATP level
Experimental: The cell toxicity of selected BPP-PNAs was determined using HepG2 hepatocytes grown in DMEM (low glucose) medium supplemented with 100 U/mL penicillin, 100 µg/mL streptomycin, 1% glutamax, and 10% fetal bovine serum (FBS) (Thermofisher Scientific, Roskilde, Denmark), at 37 °C with 5% CO2. Then, 7000–10,000 cells were seeded in each well of a 96-well plate. After 48 h, the BPP-PNAs were added (six replicates for each concentration), followed by overnight incubation. Total amount of adenosine triphosphate (ATP) was used as a measure of cell viability, according to the CellTiter-Glo luminescent cell viability assay (Promega, Madison, WI, USA) kit. BPP-PNAs concentrations ranged from 2.5 to 20 µM. Potassium dichromate (100 µM) was used as a positive control.

[8] = AC6, blood isolate, CLSI, read-out: MIC, AC6
[9] = AC7, blood isolate, CLSI, read-out: MIC, AC7
[10] = AC4, trachea isolate, CLSI, read-out: MIC, AC4
[11] = AC46, sputum isolate, CLSI, read-out: MIC, AC46
[12] = AC9, CSF isolate, CLSI, read-out: MIC, AC9
[13] = AC8, sputum isolate, CLSI, read-out: MIC, AC8
[14] = AC2, wound isolate, CLSI, read-out: MIC, AC2
[15] = Sigma MHB medium without cation

Compound | MIC (CRAB strain AC6; [8]) | MIC (CRAB strain AC7; [9]) | MIC (CRAB strain AC4; [10]) | MIC (CRAB strain AC3) | MIC [1] | MIC (CRAB strain AC1) | MIC (CRAB strain SSI1104) | MIC (CRAB strain AC46 [2]; [11]) | MIC (CRAB strain AC44 [3]) | MIC (CRAB strain AC5) | MIC (CRAB strain AC9; [12]) | MIC (CRAB strain AC8; [13]) | MIC (CRAB strain AC2 [4]; [14]) | other results
CC(C)(O/N=C(\C(=O)N[C@@H]1C(=O)N2C(C(=O)[O-])=C(C[n+]3ccccc3)CS[C@H]12)c1csc(N)n1)C(=O)O [Ceftazidime] | 32 µg/mL (≈ 58.5 µM) | 64 µg/mL (≈ 117 µM) | 64 µg/mL (≈ 117 µM) | 64 µg/mL (≈ 117 µM) | 8 µg/mL (≈ 14.6 µM) | 64 µg/mL (≈ 117 µM) | > 8 µg/mL | 128 µg/mL (≈ 234 µM) | 256 µg/mL (≈ 468 µM) | 32 µg/mL (≈ 58.5 µM) | 32 µg/mL (≈ 58.5 µM) | 64 µg/mL (≈ 117 µM) | 64 µg/mL (≈ 117 µM) | 
CNC(C)C1CCC(N)C(OC2C(N)CC(N)C(OC3OCC(C)(O)C(NC)C3O)C2O)O1 (centres unmarked) [Gentamicin] |  |  |  | 8 µg/mL (≈ 16.8 µM) | 4 µg/mL (≈ 8.38 µM) | 8 µg/mL (≈ 16.8 µM) | 32 µg/mL (≈ 67 µM) |  |  |  |  |  |  | MIC (CRAB strain AC6; AC6, read-out: MIC, AC6): 16 µg/mL (≈ 33.5 µM); MIC (CRAB strain AC7; AC7, read-out: MIC, AC7): 16 µg/mL (≈ 33.5 µM); MIC (CRAB strain AC4; AC4, read-out: MIC, AC4): 16 µg/mL (≈ 33.5 µM); MIC (CRAB strain AC46 [2]; AC46, read-out: MIC, AC46): 16 µg/mL (≈ 33.5 µM); MIC (CRAB strain AC9; AC9, read-out: MIC, AC9): 16 µg/mL (≈ 33.5 µM); MIC (CRAB strain AC8; AC8, read-out: MIC, AC8): 16 µg/mL (≈ 33.5 µM); MIC (CRAB strain AC2 [4]; AC2, read-out: MIC, AC2): 16 µg/mL (≈ 33.5 µM)
C[C@@H](O)[C@H]1C(=O)N2C(C(=O)O)=C(S[C@@H]3CN[C@H](C(=O)N(C)C)C3)[C@H](C)[C@H]12 [Meropenem] | 16 µg/mL (≈ 41.7 µM) | 16 µg/mL (≈ 41.7 µM) | 16 µg/mL (≈ 41.7 µM) | 4 µg/mL (≈ 10.4 µM) | 1 µg/mL (≈ 2.61 µM) | 4 µg/mL (≈ 10.4 µM) | > 16 µg/mL | 16 µg/mL (≈ 41.7 µM) | 16 µg/mL (≈ 41.7 µM) | 16 µg/mL (≈ 41.7 µM) | 16 µg/mL (≈ 41.7 µM) | 16 µg/mL (≈ 41.7 µM) | 16 µg/mL (≈ 41.7 µM) | 
CN(C)c1cc(NC(=O)CNC(C)(C)C)c(O)c2c1C[C@H]1C[C@H]3[C@H](N(C)C)C(O)=C(C(N)=O)C(=O)[C@@]3(O)C(O)=C1C2=O [Tigecycline] | 1 µg/mL (≈ 1.71 µM) | 1 µg/mL (≈ 1.71 µM) | 1 µg/mL (≈ 1.71 µM) | 0.5 µg/mL (≈ 0.854 µM) | 0.5 µg/mL (≈ 0.854 µM) | 0.5 µg/mL (≈ 0.854 µM) | 1 µg/mL (≈ 1.71 µM) | 0.5 µg/mL (≈ 0.854 µM) | 1 µg/mL (≈ 1.71 µM) | 1 µg/mL (≈ 1.71 µM) | 1 µg/mL (≈ 1.71 µM) | 1 µg/mL (≈ 1.71 µM) | 1 µg/mL (≈ 1.71 µM) | 
Colistin |  |  |  |  |  |  |  |  |  |  |  |  |  | MIC, AC6 (CRAB strain AC6; blood isolate, CLSI): 1 µg/mL; MIC, AC7 (CRAB strain AC7; blood isolate, CLSI): 1 µg/mL; MIC, AC4 (CRAB strain AC4; trachea isolate, CLSI): 1 µg/mL; MIC, AC3 (CRAB strain AC3; sputum isolate): 1 µg/mL; MIC, ATCC 19606 [1]: 1 µg/mL; MIC, AC1 (CRAB strain AC1; wound isolate): 1 µg/mL; MIC, SSI 1104 (CRAB strain SSI1104): 1 µg/mL; MIC, AC46 (CRAB strain AC46 [2]; sputum isolate, CLSI): 1 µg/mL; MIC, AC44 (CRAB strain AC44 [3]; urine isolate): 0.5 µg/mL; MIC, AC5 (CRAB strain AC5; urine isolate): 1 µg/mL; MIC, AC9 (CRAB strain AC9; CSF isolate, CLSI): 1 µg/mL; MIC, AC8 (CRAB strain AC8; sputum isolate, CLSI): 1 µg/mL; MIC, AC2 (CRAB strain AC2 [4]; wound isolate, CLSI): 1 µg/mL
H-(KFF)3K-eg1-ATATCGCTCAC-NH2 (all peptide nucleic acid (PNA), 5' {(KFF)3K-eg1}, 3' {NH2}) [PNA 5652, anti-acpP peptide-PNA conjugate, match, +40 to +50] |  |  |  |  |  |  |  |  |  |  |  |  |  | MIC, AC46 (CRAB strain AC46 [5]): 4 µM; MIC, SSI 1104 (A. baumannii SSI1104; MHB without cation (Oxoid)): 4 µM; MIC, SSI 1104 (A. baumannii SSI1104; [15]): 4 µM; MIC (complete growth inhibition) over the CRAB strains tested (CRAB strains; several A. baumannii strains): 4 µM; MIC, E. coli K-12 MG1655 (E. coli K-12 MG1655): 16 µM; MIC, AC44 (CRAB strain AC44 [6]; [15]): 4 µM; MIC, ATCC 19606 (A. baumannii ATCC 19606; MHB without cation (Oxoid)): 4 µM; MIC, ATCC 19606 (A. baumannii ATCC 19606; Sigma MHB medium without cation, ~5 × 10^5 CFU/mL, OD595 < 0.1): 4 µM; MIC, AC2 (CRAB strain AC2 [7]): 4 µM; MIC, P. aeruginosa (PAO1) (P. aeruginosa (PAO1)): 16 µM
H-(R-Ahx-R)4-Ahx-GAGGCCATGAC-NH2 (N-terminal (R-Ahx-R)4-Ahx peptide, C-terminal amide, backbone not given here, further chemistry not given here) [PNA 5613, anti-ftsZ (R-Ahx-R)4-Ahx-PNA, match] |  |  |  |  |  |  |  |  |  |  |  |  |  | toxicity in HepG2 (HepG2 hepatocytes): very significant toxicity; MIC (CRAB strains; text on Table 2, (R-Ahx-R)4 BPP): > 16 µM; MIC, AC44 (CRAB strain AC44 [6]; MHB without cation (Oxoid)): >16 µM; MIC, ATCC 19606 (A. baumannii ATCC 19606; MHB without cation (Oxoid)): >16 µM
